Data: article PMC3404088, “Development of a Small D-Enantiomeric Alzheimer’s Amyloid-β Binding Peptide Ligand for Future In Vivo Imaging Applications” (PLoS ONE, 2012)
Square brackets hold non-standard residues; d marks the D form. Peptide text beside a SMILES is read from it. * marks the point of attachment. 5FAM = O=C1OC2(c3ccc(O)cc3Oc3cc(O)ccc32)c2ccc(C(=O)*)cc21

How the values were obtained:
[1] = Analysis of ACI-80 stability: N-terminal glutamine vs pyroglutamate content by HPLC/ESI-MS; assay type: physicochemical; conditions: aqueous solution
Procedure: In solution, N-terminal glutamine peptides such as D1 are prone to convert into N-terminal pyroglutamate species: Gln-SHYRHISPAQV → Pyr-SHYRHISPAQV. Therefore, the stability of solid ACI-80, solid ACI-80-Kϕ (ϕ: fluorescein isothiocyanate, covalently linked to the peptide via a lysine (K)) and [^127I]-ACI-80 in solution was investigated by JPT Peptide Technologies GmbH, Berlin, Germany using HPLC/ESI-MS whereby the relative content of N-terminal Gln peptide and N-terminal Pyr peptide was assessed.
An important observation during initial compound stability characterization experiments was the partial conversion of the N-terminal glutamine of [^127I]-ACI-80 into pyro-glutamate. It is known that peptides with an N-terminal glutamine are prone to conversion of this residue into a pyroglutamate. Therefore, the composition of freshly synthesized and untreated ACI-80 and ACI-80-Kϕ as well as [^127I]-ACI-80 after iodination were investigated. […] It was observed that freshly synthesized ACI-80 and ACI-80-Kϕ contained only minor fractions of pyroglutamic acid while about one third of [^127I]-ACI-80 in solution already converted into N-terminal pyroglutamate species.

[2] = biological target: T1, Aβ1–42 monomers (Homo sapiens, UniProt P05067); experiment: ELISA, compound binding to Aβ1–42 peptide film (predominantly monomers); conditions: 10 µg/ml compound; optical density after pNPP incubation; value of one single experiment only
T1 construct: Aβ1–42 peptide film was prepared from lyophilized powder (Bachem); purchased Bachem
T1 sequence (P05067 672-713 limits assumed): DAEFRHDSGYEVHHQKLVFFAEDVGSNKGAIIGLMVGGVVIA
Procedure: Aβ1–42 peptide film was prepared from lyophilized powder (Bachem). The powder was reconstituted in HFIP to a final concentration of 1 mM, sonicated for 15 min at room temperature (RT), agitated overnight (ON), and aliquoted into non-siliconized microcentrifuge tubes (12 µl corresponding to 55 µg). The HFIP was evaporated under a stream of argon. The resulting peptide film was vacuum dried for 10 min and stored at -80°C. For direct use as peptide film, an aliquot of Aβ1–42 peptide film was reconstituted with 0.54% dimethylsulphoxide (DMSO) in phosphate buffered saline (PBS) to obtain a final concentration of 10 µg/ml and then used for the ELISA as described below. To prepare fibrils, 55 µg aliquot of peptide film was dissolved in 55 µl of 50 mM Tris-HCl, pH 7.4 and incubated at 37°C for five days. Next, the sample was centrifuged (10’000 rpm for 5 min) and the pellet was diluted in 50 mM Tris-HCl, pH 7.4.
Aβ1–42 peptide preparations were diluted in 0.05 M bicarbonate-carbonate buffer pH 9.6, to the final concentration of 10 µg/ml and coated onto ELISA plates (MaxiSorp, Nunc). After blocking (PBS; 0.05% Tween; 1% BSA), plates were incubated with 2- or 3-fold dilutions of D-compounds (starting concentration: 10 µg/ml) and incubated for 2 h at 37°C. Plates were then washed and incubated for 2 h at 37°C with the detection antibody Rabbit-a-fluorescein isothiocyanate-AP (Sigma; 1∶10’000 dilution) followed by the incubation for 2.5 h at room temperature (RT) with 1 mg/ml of phosphatase substrate (pNPP, Sigma). The absorbance signal was read at 405 nm wavelength using a Tecan plate reader (Tecan Group Lt, Männedorf, Switzerland).
ELISA plates (MaxiSorp, Nunc) were coated with anti-Aβ antibody 6E10 (Covance) at a concentration of 5 µg/ml. Either monomeric Aβ1–42 peptide film (mainly monomeric) or Aβ1–42 fibrils, which were prepared as described above, were diluted in PBS to the final concentration 10 µg/ml and mixed with 10-fold dilutions of D-peptide compounds in Eppendorf tubes (starting concentration of D-peptide compounds: 10 µg/ml). The tubes were incubated for 2 h at 37°C. Next, samples were distributed onto the ELISA plate and kept for 2 h at 37°C. Plates were washed and incubated for 2 h at 37°C with the detection antibody Rabbit-a-fluorescein isothiocyanate-AP (Sigma; 1∶10′000 dilution) following the incubation overnight (ON) at RT with 1 mg/ml of phosphatase substrate (pNPP, Sigma). The absorbance signal was read at 405 nm wavelength using the Tecan plate reader (Tecan Group Ltd, Männedorf, Switzerland).
To verify the SPR results, ELISA was employed to assay the interaction of the ACI-80 derivatives ACI-80-Kϕ, ACI-81-Kϕ, ACI-82-Kϕ, ACI-83-Kϕ, ACI-84-Kϕ, ACI-85-Kϕ, ACI-86-Kϕ, ACI-87-Kϕ, [^19F]-ACI-87-Kϕ, ACI-88-Kϕ, [^19F]-ACI-88-Kϕ, ACI-89-Kϕ, [^19F]-ACI-89-Kϕ) with Aβ1–42 fibrils and Aβ peptide film in solution containing mostly monomers and smaller oligomers (Table 4). To avoid any bias by possible conformational influences the ELISA has been carried out in two versions, once with immobilized antibody and once with immobilized Aβ1–42 as described in the methods section. Both assays yielded similar results and confirmed each other. […] Panels A and B in Figure 2 show the results for binding to Aβ1–42 fibrils and panels C and D in Figure 2 show the results for binding to freshly prepared Aβ1–42 peptide film, which contains mostly monomeric Aβ. In Table 4, the performance of the peptides is expressed relative to that of ACI-80-Kϕ.

SMILES	stability in aqueous solution [1]	binding value, binding Aβ1–42 monomers [2]
CC[C@@H](C)[C@@H](NC(=O)[C@@H](Cc1c[nH]cn1)NC(=O)[C@@H](CCCNC(=N)N)NC(=O)[C@@H](Cc1ccc(O)cc1)NC(=O)[C@@H](Cc1c[nH]cn1)NC(=O)[C@@H](CO)NC(=O)[C@H](N)CCC(N)=O)C(=O)N[C@H](CO)C(=O)N1CCC[C@@H]1C(=O)N[C@H](C)C(=O)N[C@H](CCC(N)=O)C(=O)N[C@H](CCCCN)C(=O)N[C@H](CCCCNC(=O)c1ccc2c(c1)C(=O)OC21c2ccc(O)cc2Oc2cc(O)ccc21)C(=O)O [ACI-87-Kϕ] (H-[dQ][dS][dH][dY][dR][dH][dI][dS][dP][dA][dQ][dK][dK](5FAM)-OH; N-terminus and C-terminus assumed)	stable in aqueous solution	*0.79
CC[C@@H](C)[C@@H](NC(=O)[C@@H](Cc1c[nH]cn1)NC(=O)[C@@H](CCCNC(=N)N)NC(=O)[C@@H](Cc1ccc(O)cc1)NC(=O)[C@@H](Cc1c[nH]cn1)NC(=O)[C@H](N)CO)C(=O)N[C@H](CO)C(=O)N1CCC[C@@H]1C(=O)N[C@H](C)C(=O)N[C@H](CCC(N)=O)C(=O)N[C@H](CCCCN)C(=O)N[C@H](CCCCNC(=O)c1ccc2c(c1)C(=O)OC21c2ccc(O)cc2Oc2cc(O)ccc21)C(=O)O [ACI-88-Kϕ] (H-[dS][dH][dY][dR][dH][dI][dS][dP][dA][dQ][dK][dK](5FAM)-OH; N-terminus and C-terminus assumed)	stable in aqueous solution	*1.29
CC[C@@H](C)[C@@H](NC(=O)[C@@H](Cc1c[nH]cn1)NC(=O)[C@@H](CCCNC(=N)N)NC(=O)[C@@H](Cc1ccc(O)cc1)NC(=O)[C@@H](Cc1c[nH]cn1)NC(=O)[C@@H](CO)NC(=O)[C@H]1CCCN1)C(=O)N[C@H](CO)C(=O)N1CCC[C@@H]1C(=O)N[C@H](C)C(=O)N[C@H](CCC(N)=O)C(=O)N[C@H](CCCCN)C(=O)N[C@H](CCCCNC(=O)c1ccc2c(c1)C(=O)OC21c2ccc(O)cc2Oc2cc(O)ccc21)C(=O)O [ACI-89-Kϕ] (H-[dP][dS][dH][dY][dR][dH][dI][dS][dP][dA][dQ][dK][dK](5FAM)-OH; N-terminus and C-terminus assumed)	stable in aqueous solution	*1.06
